Among the data in BindingDB's records for PubMed 9353361 (National Institute of Diabetes and Digestive and Kidney …, 1997) are Ki values, retold here.

Structures are written as SMILES. Where “and” joins values, the source holds several entries; their conditions need not be identical. Identical values can stand only once.

The test has as its target Gamma-aminobutyric acid receptor subunit alpha-5 (Rattus norvegicus, UniProt P19969).

Sequence of Gamma-aminobutyric acid receptor subunit alpha-5 (P19969 whole entry): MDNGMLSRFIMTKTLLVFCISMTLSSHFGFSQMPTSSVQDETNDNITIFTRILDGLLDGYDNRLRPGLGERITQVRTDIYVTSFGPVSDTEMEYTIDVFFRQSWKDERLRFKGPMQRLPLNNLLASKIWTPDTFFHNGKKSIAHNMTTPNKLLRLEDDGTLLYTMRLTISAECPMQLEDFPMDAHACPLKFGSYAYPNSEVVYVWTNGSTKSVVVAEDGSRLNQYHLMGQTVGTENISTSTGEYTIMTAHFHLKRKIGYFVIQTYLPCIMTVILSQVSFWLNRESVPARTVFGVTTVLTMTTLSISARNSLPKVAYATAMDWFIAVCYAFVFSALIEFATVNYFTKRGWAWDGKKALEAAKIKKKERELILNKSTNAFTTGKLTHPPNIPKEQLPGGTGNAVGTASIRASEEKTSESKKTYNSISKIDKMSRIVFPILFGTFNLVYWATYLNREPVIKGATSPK

The term Ki denotes the dissociation constant of the complex between target and ligand, obtained from inhibition or displacement. A low value points to higher affinity. Consider `CN1Cc2c(C(=O)OC(C)(C)C)ncn2-c2ccc(C#C[Si](C)(C)C)cc2C1=O`, for which the Ki was 1.03 nM and 0.83 nM.
Next, `CN1C(=O)CN=C(c2ccccc2)c2cc(C#N)ccc21`: 34 nM.
